Assay results: ChEMBL document CHEMBL1649187, “New plasmid-mediated quinolone resistance gene, qnrC, found in a clinical isolate of Proteus mirabilis” (2009)
Converted amounts (≈) assume the structure as drawn.

Experiments:
Type in all cases: functional
[1] = tested on: Proteus mirabilis; assay: Antimicrobial activity against Proteus mirabilis 06-489 isolated from infected human urinary tract by CLSI agar dilution method
[2] = tested on: Escherichia coli; assay: Antimicrobial activity against Escherichia coli J53 transconjugated with Proteus mirabilis pHS10 carrying qnrC gene by CLSI agar dilution method
[3] = tested on: Escherichia coli; assay: Antimicrobial activity against Escherichia coli J53 by CLSI agar dilution method
[4] = tested on: Proteus mirabilis; assay: Antimicrobial activity against Proteus mirabilis 06-489 isolated from infected human urinary tract by Etest; conditions: 06-489, Urine
[5] = tested on: Escherichia coli; assay: Antimicrobial activity against Escherichia coli J53 transconjugated with Proteus mirabilis pHS10 carrying qnrC gene by Etest
[6] = tested on: Escherichia coli; assay: Antimicrobial activity against Escherichia coli J53 by Etest
[7] = tested on: Escherichia coli; assay: Antimicrobial activity against Escherichia coli TOP10 harboring pHS12 carrying qnrC gene by CLSI agar dilution method
[8] = tested on: Escherichia coli; assay: Antimicrobial activity against Escherichia coli TOP10 harboring pHS12 carrying ATG to ACG substituted qnrC gene by CLSI agar dilution method
[9] = tested on: Escherichia coli; assay: Antimicrobial activity against Escherichia coli TOP10 harboring pHS12 carrying TTG to ATG substituted qnrC gene by CLSI agar dilution method
[10] = tested on: Escherichia coli; assay: Antimicrobial activity against Escherichia coli TOP10 harboring pHS12 carrying TTG to TTA substituted qnrC gene by CLSI agar dilution method
[11] = tested on: Escherichia coli; assay: Antimicrobial activity against Escherichia coli TOP10 harboring pHS12 carrying ATT to ATG substituted qnrC gene by CLSI agar dilution method
[12] = tested on: Escherichia coli; assay: Antimicrobial activity against Escherichia coli TOP10 harboring pHS12 carrying ATT to TTA substituted qnrC gene by CLSI agar dilution method
[13] = tested on: Escherichia coli; assay: Antimicrobial activity against Escherichia coli ATCC 25922 by CLSI agar dilution method
[14] = tested on: Escherichia coli; assay: Antimicrobial activity against Escherichia coli TOP10 harboring pHS12 carrying TTG to TCG substituted qnrC gene by CLSI agar dilution method

Compound	MIC ([1]; 06-489, Urine)	MIC [2]	MIC [3]	other results
NCC[C@H](O)C(=O)N[C@@H]1C[C@H](N)[C@@H](O[C@H]2O[C@H](CN)[C@@H](O)[C@H](O)[C@H]2O)[C@H](O)[C@H]1O[C@H]1O[C@H](CO)[C@@H](O)[C@H](N)[C@H]1O [AMIKACIN]	8 µg/mL (≈ 13.7 µM)	0.5 µg/mL (≈ 0.854 µM)	0.25 µg/mL (≈ 0.427 µM)	–
CC1(C)S[C@@H]2[C@H](NC(=O)[C@H](N)c3ccccc3)C(=O)N2[C@H]1C(=O)O [AMPICILLIN]	64 µg/mL (≈ 183 µM)	128 µg/mL (≈ 366 µM)	4 µg/mL (≈ 11.4 µM)	–
CO/N=C(\C(=O)N[C@@H]1C(=O)N2C(C(=O)O)=C(COC(C)=O)CS[C@H]12)c1csc(N)n1 [CEFOTAXIME]	≤ 0.06 µg/mL	≤ 0.06 µg/mL	≤ 0.06 µg/mL	–
CO[C@@]1(NC(=O)Cc2cccs2)C(=O)N2C(C(=O)O)=C(COC(N)=O)CS[C@@H]21 [CEFOXITIN]	2 µg/mL (≈ 4.68 µM)	4 µg/mL (≈ 9.36 µM)	4 µg/mL (≈ 9.36 µM)	–
CC(C)(O/N=C(\C(=O)N[C@@H]1C(=O)N2C(C(=O)[O-])=C(C[n+]3ccccc3)CS[C@H]12)c1csc(N)n1)C(=O)O [CEFTAZIDIME]	≤ 0.06 µg/mL	0.06 µg/mL (≈ 0.11 µM)	≤ 0.06 µg/mL	–
CO/N=C(\C(=O)N[C@@H]1C(=O)N2C(C(=O)O)=C(COC(N)=O)CS[C@H]12)c1ccco1 [CEFUROXIME]	4 µg/mL (≈ 9.43 µM)	8 µg/mL (≈ 18.9 µM)	8 µg/mL (≈ 18.9 µM)	–
O=C(N[C@H](CO)[C@H](O)c1ccc([N+](=O)[O-])cc1)C(Cl)Cl [CHLORAMPHENICOL]	16 µg/mL (≈ 49.5 µM)	64 µg/mL (≈ 198 µM)	8 µg/mL (≈ 24.8 µM)	–
O=C(O)c1cn(C2CC2)c2cc(N3CCNCC3)c(F)cc2c1=O [CIPROFLOXACIN]	–	–	–	MIC [4]: 0.25 µg/mL (≈ 0.754 µM)
C[C@H]1COc2c(N3CCN(C)CC3)c(F)cc3c(=O)c(C(=O)O)cn1c23.C[C@H]1COc2c(N3CCN(C)CC3)c(F)cc3c(=O)c(C(=O)O)cn1c23.O [LEVOFLOXACIN]	–	–	–	MIC [4]: 0.5 µg/mL; MIC [5]: 0.25 µg/mL; MIC [6]: 0.023 µg/mL; MIC [7]: 0.19 µg/mL; MIC [8]: 0.19 µg/mL; MIC [9]: 0.19 µg/mL; MIC [10]: 0.006 µg/mL; MIC [11]: 0.125 µg/mL; MIC [12]: 0.125 µg/mL; MIC [13]: 0.006 µg/mL
CCn1cc(C(=O)O)c(=O)c2ccc(C)nc21 [NALIDIXIC ACID]	–	–	–	MIC [4]: 16 µg/mL (≈ 68.9 µM); MIC [5]: 16 µg/mL (≈ 68.9 µM); MIC [6]: 4 µg/mL (≈ 17.2 µM); MIC [7]: 4 µg/mL (≈ 17.2 µM); MIC [8]: 4 µg/mL (≈ 17.2 µM); MIC [9]: 4 µg/mL (≈ 17.2 µM); MIC [14]: 1.5 µg/mL (≈ 6.46 µM); MIC [10]: 1 µg/mL (≈ 4.31 µM); MIC [11]: 4 µg/mL (≈ 17.2 µM); MIC [12]: 3 µg/mL (≈ 12.9 µM); MIC [13]: 1 µg/mL (≈ 4.31 µM)
Cc1cc(NS(=O)(=O)c2ccc(N)cc2)no1 [SULFAMETHOXAZOLE]	> 1020 µg/mL	> 1020 µg/mL	16 µg/mL (≈ 63.2 µM)	–
CN(C)[C@@H]1C(O)=C(C(N)=O)C(=O)[C@@]2(O)C(O)=C3C(=O)c4c(O)cccc4[C@@](C)(O)[C@H]3C[C@@H]12 [TETRACYCLINE]	128 µg/mL (≈ 288 µM)	128 µg/mL (≈ 288 µM)	1 µg/mL (≈ 2.25 µM)	–
COc1cc(Cc2cnc(N)nc2N)cc(OC)c1OC [TRIMETHOPRIM]	> 128 µg/mL	> 128 µg/mL	0.25 µg/mL (≈ 0.861 µM)	–
GENTAMICIN	–	4 µg/mL	0.125 µg/mL	MIC ([1]; Urine): 16 µg/mL
